In US8022089B2, “Isoxazoline-substituted benzamide compound and pesticide” (Nissan Chemical Industries, Ltd., priority 2004, dated 2011):

melting point: 156 to 158 °C
SMILES: CNc1cc(C2=NOC(c3cc(Cl)cc(Cl)c3)(C(F)(F)F)C2)ccc1C(=O)NCC(F)(F)F (stereo not shown)
